Results: patent US9321742B2, “N1-cyclic amine-N5-substituted biguanide derivatives, methods of preparing the same and pharmaceutical composition comprising the same” (IMMUNOMET THERAPEUTICS INC., priority 2011, dated 2016)
Counter-ions that a name gives are not always drawn.

How the values were obtained:
[1] = test system: AMPKα; assay: Measurement of AMPK-activation effect (AMPKα Thr172 phosphorylation immunoassay in MCF7 cells); type: cell-based, human; conditions: 24 hours; for AMPK activation effect 10 uM (%) / AMPK activation effect 50 uM (%): relative to untreated cells
Method: MCF7 cells derived from human breast cancer cells (commercially available from the Korean Cell Line Bank) were used, and the AMPK (5′-AMP-activated protein kinase alpha)-activation effect of the biguanide derivative was confirmed using an AMPKα immunoassay kit (Invitrogen, Catalog No. KH00651).
MCF7 cells were cultured in a DMEM medium supplemented with 10% fetal bovine serum. Thereafter, the cultured MCF7 cells were put into a 6-well plate with approximately 5×10^5 cells per well and cultured in an incubator supplied with 5% CO2. Culture media were treated with the derivatives synthesized in the examples at contents of 5, 10 and 50 μM, and then cultured for 24 hours. Metformin hydrochloride was used as the control, and the culture media were treated with 0.05, 0.5, 1, 2, 5 and 10 mM metformin hydrochloride, and then tested in the same manner as described in the derivatives synthesized in the examples. Subsequently, the cells were lysed according to a method presented in the operation manual of the AMPKα immunoassay kit, and 20 μg of a cell lysate was then yielded through protein assay. Thereafter, the AMPK activation effect was obtained by determining the degree of phosphorylation of 172nd threonine residue (Thr172) of the AMPKα from the cell lysate according to the method presented in the operation manual of the AMPKα immunoassay kit. […] A curve graph showing AMPK activation according to the concentration of the treated compounds was plotted based on the obtained AMPKα activation results, the concentration (activation concentration 150, AC150) value of the compound whose AMPK activation reached 150% was calculated using a GraphPad Prism 5.0 program, and the degrees of AMPK activation were obtained when concentrations of the treated biguanide derivatives were 10 μM and 50 μM and the metformin hydrochloride was 50 μM.

[2] = test system: HCT116 cells; assay: Measurement of effect of inhibiting cancer cell proliferation (MTT); type: cell-based; conditions: Homo sapiens; for inhibition at 100 µM: HCT-116, 100 uM, 48 hours, read-out: Cell Growth Inhibition (%) at 100 uM; for GI50: HCT-116, 48 hours
Text: HCT116 cells derived from human colorectal cancer (commercially available from the Korean Cell Line Bank) were used, and the effect of inhibiting cancer cell proliferation of the biguanide derivative was confirmed by measuring the concentration value (cell growth inhibition concentration, GIC50) at which cell growth was inhibited by 50% using a 3-(4,5-dimethylthiazol-2-yl)-2,5-[…] bromide (MTT) reagent.
First, HCT116 cells were put on a 96-well plate and cultured in a DMEM medium containing 10% fetal bovine serum for 16 hours so that the cellcount in each well was approximately 5,000. Subsequently, to obtain the GIC50 value of each compound, culture media were treated with 100 μM, 25 μM, 6.25 μM, 1.56 μM or 0.39 μM of the compound, and then cultured for 48 hours. At this time, some of the compounds were treated with 200 μM instead of 100 μM. Metformin hydrochloride was used as the control, and the culture media were treated with 25, 12.5, 2.5, 0.5, 0.1 mM metformin hydrochloride, and then tested in the same manner as described in the derivatives synthesized in the examples. In order to determine whether the cells survived after treatment with the compound, MTT was added to the culture media which were then cultured for another 3 hours. Formed formazane crystals were dissolved using dimethyl sulfoxide (DMSO), and the absorbance of the resulting solution was measured at 560 nm. After the 48-hours culture, the ratio of the cell count cultured on a well plate not treated with the compound to the living cell count on a well plate treated with the compounds synthesized in the examples was indicated as cell viability (%) according to each treated concentration. A cell viability curve graph was plotted and the concentration (GIC50) value of the compound at which the growth was inhibited by 50% was calculated to confirm the effect of inhibition of cancer cell proliferation. Also, the cell growth viability (%) when the concentration of the treated biguanide derivative and the metformin hydrochloride as the control were 100 uM was shown.

Compound	melting point [°C]	AMPK activation effect 10 uM (%) [1] [%]	AMPK activation effect 50 uM (%) [1] [%]	AC150 (concentration at which AMPK activation reached 150%) [1] [µM]	inhibition at 100 µM [2] [%]	GI50 [2] [µM]
Cl.N=C(NCc1cccnc1)NC(=N)N1CCCCC1	197 to 199					
Cl.N=C(NCc1ccccc1)NC(=N)N1CCCCC1	156 to 158					
Cl.N=C(NCc1cccc(C(F)(F)F)c1)NC(=N)N1CCCCC1 [Example 7, N1-piperidine-N5-(3-trifluoromethyl)benzyl biguanide hydrochloride]	259 to 260	582	677	1.0	97.4	17.2
CNC(=N)NC(=N)N1CCCCC1.Cl [Example 8, N1-piperidine-N5-methyl biguanide hydrochloride]	211 to 212	139	500	9.0	50.5	88.6
CCCCNC(=N)NC(=N)N1CCCCC1.Cl [Example 11, N1-piperidine-N5-butyl biguanide hydrochloride]	113 to 114		130	>50	42.7	> 100
Cl.N=C(NC(=N)N1CCCC1)NC1CCCC1 [Example 13, N1-pyrrolidine-N5-cyclopentyl biguanide hydrochloride]	200 to 201	131	375	11.9	41.9	> 100
Cl.N=C(NC(=N)N1CCCCC1)NC1CCCC1 [Example 14, N1-piperidine-N5-cyclopentyl biguanide hydrochloride]	154 to 155	114	157	38.3	30.4	> 100
Cl.N=C(NC(=N)N1CCCCCC1)NC1CCCC1 [Example 15, N1-azepane-N5-cyclopentyl biguanide hydrochloride]	224 to 225	174	291	7.0	27.9	> 100
Cl.N=C(NC(=N)N1CCCCC1)NC1CCCCC1 [Example 16, N1-piperidine-N5-cyclohexyl biguanide hydrochloride]	214 to 215	167	486	8.0	49.1	> 100
Cl.N=C(NC(=N)N1CCCC1)NC1CCCCCC1 [Example 17, N1-pyrrolidine-N5-cycloheptyl biguanide hydrochloride]	265 to 266	149	612	7.9	60.8	41
Cl.N=C(NC(=N)N1CCCCC1)NC1CCCCCC1 [Example 18, N1-piperidine-N5-cycloheptyl biguanide hydrochloride]	237 to 238	304	719	2.2	64.3	23.1
Cl.N=C(NC(=N)N1CCCCCC1)NC1CCCCCC1 [Example 19, N1-azepane-N5-cycloheptyl biguanide hydrochloride]	237 to 238	213	325	5.6	94.7	35.7
Cl.N=C(NCc1cccnc1)NC(=N)N1CCCC1 [Example 20, N1-pyrrolidine-N5-(pyridine-3-ylmethyl)biguanide hydrochloride]	201 to 203	71	89	>50	9.2	> 100
Cl.N=C(NCc1ccco1)NC(=N)N1CCCC1 [Example 22, N1-pyrrolidine-N5-(furan-2-ylmethyl)biguanide hydrochloride]	242 to 243	101	293	18.3	43.9	> 100
Cl.N=C(NCc1ccco1)NC(=N)N1CCCCC1 [Example 23, N1-piperidine-N5-(furan-2-ylmethyl)biguanide hydrochloride]	251 to 252	112	298	15.8	39.5	> 100
Cl.N=C(NCc1cccs1)NC(=N)N1CCCCC1 [Example 24, N1-piperidine-N5-(thiophene-2-ylmethyl)biguanide hydrochloride]	220 to 221	64	112	>50	51.7	93.2
Cl.N=C(NCc1cccc2ccccc12)NC(=N)N1CCCCC1 [Example 25, N1-piperidine-N5-(naphthalene-1-yl)methyl biguanide hydrochloride]			428	8.0	96.6	28
Cc1ccc(CNC(=N)NC(=N)N2CCCCC2)cc1.Cl [Example 27, N1-piperidine-N5-(4-methyl)benzyl biguanide hydrochloride]	241 to 243	435	947	2.3	64.9	70.5
Cl.N=C(NCc1cccc(F)c1)NC(=N)N1CCCCC1 [Example 29, N1-piperidine-N5-(3-fluoro)bezyl biguanide hydrochloride]	171 to 172		131	>50		
Cl.N=C(NCc1ccc(C(F)(F)F)cc1)NC(=N)N1CCCCC1 [Example 39, N1-piperidine-N5-(4-trifluoromethyl)benzyl biguanide hydrochloride]		476	615	0.9	78.9	16.2
CN1CCN(C(=N)NC(=N)NCc2ccc(OC(F)(F)F)cc2)CC1.Cl [Example 43, N1-(4-methyl)piperazine-N5-(4-trifluoromethoxy)benzyl biguanide hydrochloride]		669	854	6.4	97.7	> 100
CN(C)C(=N)N=C(N)N [Metformin hydrochloride, reference compound]			130	188.3	1.8	2850
